# “Also recorded” adds a separate entry of the source.
# How the values were obtained:
# [1] = DPPH radical scavenging assay (in vitro); conditions: 0.1 mM DPPH in MeOH, 30 min dark, room temperature, 540 nm
# BACE-1 = biological target: T1, BACE-1 (Homo sapiens, UniProt P56817); experiment: BACE-1 FRET inhibition assay; type: biochemical; conditions: FRET kit, 60 min room temperature, triplicate, tested up to 50 µM
# T1 construct: purchased PanVera (Madison, WI, USA) / Thermo Fisher Scientific P2985
# Protocol: The experiments were each performed in triplicates for all of the compounds.
# A BACE-1 inhibition assay was conducted using a β-Secretase FRET kit (BACE-1, Thermo Fisher Sientific, San Diego, CA, USA) according to manufacturer instructions. […] The sample was diluted further in assay buffer (final concentrations of 50, 25, 12.5, 6.25, 3.12, 1.56, 0.78, 0.39, 0.2, and 0.1 µM in each well) and black 96-well microplates were mixed with 10 µL of BACE-1 substrate. Then, 10 µL of 3 × BACE-1 enzyme was added to each well to start the reaction. Plates were incubated at room temperature in the dark for 60 min. After incubation, 10 µL of 2.5 mM sodium acetate was added to each well to stop the reaction. Finally, multiwell spectrofluorometer instruments were used for a multimode plate reader (Multistkan^TM GO, Thermo Scientific, Waltham, MA, USA) at an excitation wavelength of 545 nm and an emission wavelength of 585 nm. The half-maximal inhibitory concentration (IC50) was calculated by plotting the obtained relative fluorescence unit per hour (RFU/h) against the logarithmic of the inhibitor concentration. All determinations were performed in triplicate.
# RAW 264.7 cells [2] = experiment: Nitric oxide production (Griess reagent) in LPS-stimulated cells; type: cell-based, murine; conditions: RAW 264.7, 1 h pretreatment, LPS 0.5 μg/mL 24 h
# Protocol: (§1) The macrophage-like murine cell line RAW 264.7 (KCLB number 40071; Korean Cell Line Bank, Seoul, Korea) was cultured in Dulbecco’s Modified Eagle Medium (DMEM, Sigma-Aldrich, St. Louis, MO, USA) supplemented with 10% heat-inactivated fetal bovine serum (FBS, Invitrogen, Burlington, ON, Canada) and 1% (w/v) antibiotic–antimycotic solution (Invitrogen, Grand Island, NY, USA) at 5% CO2 and 37 °C.
# Nitrite accumulation was used as an indicator of NO production in the medium, and the nitrite level was determined by assaying the culture supernatants for nitrite using the Griess reagent (1% sulfanilamide, 0.1% N-(1-naphathyl)-ethylenediamine dihydrochloride, and 5% phosphoric acid). […] Then, 100 μL of cell culture supernatants were mixed with 100 μL of Griess reagent in a 96-well plate. Sodium nitrite was used to generate a standard curve and the concentration of nitrite was then measured by the absorbance at 540 nm using a microplate reader. All determinations were performed in triplicate.
# RAW 264.7 cells [3] = experiment: MTT cytotoxicity assay; type: cell-based, murine; conditions: RAW 264.7, 24 h
# Protocol: as §1
# Cell cytotoxicity was determined by an MTT (3-(4,5)-dimethylthiazol-2-yl-2,5-diphenyltetrazolium bromide, Amresco, Solon, OH, USA) colorimetric assay. […] After incubation with test substances, MTT solutions (5 μL of a 5 mg/mL concentration in PBS) were added to the wells and incubated for 4 h at 37 °C. Then, treated with 100 μL of fresh DMSO to dissolve the crystals for 10 min, the cells were detected under a microplate reader (Thermo Scientific Inc., San Diego, CA, USA) to measure the absorbance at 570 nm. Relative cell viability was calculated by comparing the absorbance of the untreated control group. All experiments were performed in triplicate.
# [4] = Stability in aqueous solution by HPLC purity; type: physicochemical; conditions: 10 mM in water, room temperature, HPLC UV 254 nm; ramalin started at 98%
# From the text: Therefore, to improve its stability and BBB penetration capacity, its structure was modified by replacing the phenolic hydroxyl groups at position two with either a methyl group or a fluorine atom and by changing their positions. Thus, several derivatives were obtained. Specifically, RA-2Me, RA-3Me, and RA-4Me were synthesized by changing the position of the methyl group, which is an electron-donating group, and RA-25Me and RA-34Me, with two methyl groups on the phenyl ring, were synthesized by introducing an extra methyl group. To investigate the effect of fluorine atoms, which are electron-withdrawing as opposed to the methyl group, RA-2F, RA-4F, RA-24F, and RA-pentafluoride (PF) were also successfully synthesized. […] AD-related therapeutic agents are required to penetrate the BBB and reach their target. […] Given that ramalin and its derivatives are water-soluble low-molecular-weight compounds and that their lipophilicities and hydrophilicities balance out, their influence on AlogP, which indicates lipophilicity, was not significant. Additionally, given their PSA values (90 Å^2 < PSA < 140 Å^2), they are considered to be advantageous in terms of BBB penetration.
# T1 sequence (P56817 46-501): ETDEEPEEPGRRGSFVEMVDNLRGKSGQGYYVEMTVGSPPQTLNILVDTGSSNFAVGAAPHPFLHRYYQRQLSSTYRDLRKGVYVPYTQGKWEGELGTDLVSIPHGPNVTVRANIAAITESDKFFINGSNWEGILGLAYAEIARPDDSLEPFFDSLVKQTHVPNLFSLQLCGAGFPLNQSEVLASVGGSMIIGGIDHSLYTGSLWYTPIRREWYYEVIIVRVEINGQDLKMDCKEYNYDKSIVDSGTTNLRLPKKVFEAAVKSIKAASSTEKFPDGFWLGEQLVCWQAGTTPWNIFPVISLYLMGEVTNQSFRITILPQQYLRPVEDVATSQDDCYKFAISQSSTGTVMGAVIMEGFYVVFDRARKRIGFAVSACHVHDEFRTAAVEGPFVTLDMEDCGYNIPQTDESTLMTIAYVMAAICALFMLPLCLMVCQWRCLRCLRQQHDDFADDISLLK
Compound,IC50 [1],IC50 (BACE-1),Purity after 14 h in water [4],NO inhibitory (anti-inflammatory) activity (RAW 264.7 cells [2]),"Cytotoxicity (cell viability, MTT) (RAW 264.7 cells [3])"
"Cc1ccc(NNC(=O)CC[C@H](N)C(=O)O)cc1C [RA-34Me, N^5-((3,4-Dimethylphenyl)amino)-L-glutamine]",4.46 µM,13.1 ± 1.52 µM,,concentration-dependent NO inhibition,
"Cc1ccc(NNC(=O)CC[C@H](N)C(=O)O)cc1 [RA-4Me, N^5-(p-Tolylamino)-L-glutamine]",3.91 µM,13 ± 1.62 µM,,weak anti-inflammatory effects,
"N[C@@H](CCC(=O)NNc1c(F)c(F)c(F)c(F)c1F)C(=O)O [RA-PF, N^5-((Perfluorophenyl)amino)-L-glutamine]",,14.6 ± 6.08 µM,,concentration-dependent NO inhibition,
"Cc1cccc(NNC(=O)CC[C@H](N)C(=O)O)c1 [RA-3Me, N^5-(m-Tolylamino)-L-glutamine]",5.3 µM,22.5 ± 0.69 µM,,weak anti-inflammatory effects,

# Now from value to molecule, other results behind:
IC50 [1],IC50 (BACE-1),Purity after 14 h in water [4],Compound,NO inhibitory (anti-inflammatory) activity (RAW 264.7 cells [2]),"Cytotoxicity (cell viability, MTT) (RAW 264.7 cells [3])"
4.42 µM,18.8 ± 3.86 µM,,"N[C@@H](CCC(=O)NNc1ccccc1F)C(=O)O [RA-2F, N^5-((2-Fluorophenyl)amino)-L-glutamine]",concentration-dependent NO inhibition,
5.32 µM,,,"N[C@@H](CCC(=O)NNc1ccc(F)cc1F)C(=O)O [RA-24F, N^5-((2,4-Difluorophenyl)amino)-L-glutamine]",concentration-dependent NO inhibition; also recorded: stronger anti-inflammatory effect than ramalin,without cytotoxicity
,,83%,"NC(CCC(=O)NNc1ccccc1O)C(=O)O (stereo not drawn) [Ramalin, ramalin]",,
4.5 µM,9.81 ± 1.21 µM,,"Cc1ccc(C)c(NNC(=O)CC[C@H](N)C(=O)O)c1 [RA-25Me, N^5-((2,5-Dimethylphenyl)amino)-L-glutamine]",concentration-dependent NO inhibition,
2.79 µM,15 ± 4.92 µM,,"Cc1ccccc1NNC(=O)CC[C@H](N)C(=O)O [RA-2Me, N^5-(o-Tolylamino)-L-glutamine]",weak anti-inflammatory effects,
4.16 µM,20.1 ± 4.78 µM,,"N[C@@H](CCC(=O)NNc1ccc(F)cc1)C(=O)O [RA-4F, N^5-((4-Fluorophenyl)amino)-L-glutamine]",concentration-dependent NO inhibition,

# From paper PMC8588271 (Molecules, 2021)
